Experimental data as given in patent US9089546B2, “Synergistic compositions consisting essentially of combinations of active agents selected from oridonin, wogonin, and isoliquiritigenin for the prevention of neoplasia” (ACTIVEPHYTO TECHNOLOGIES LIMITED, priority 2006, dated 2015).

Assays:
Format in all cases: cell-based
A2780 = assay: MTT assay, second set of experiments (Experiment 4), single agents; settings: Homo sapiens
Procedure: (§1) Inhibition of Cell-Growth and Viability […]: The MTT reagent kit was purchased from Boehringer Mannheim (Roche Diagnosis Corp, Indianapolis, Ind.) to count viable cells. […] The protocol for the cell viability assay was provided by the manufacturer and modified in our laboratory as described below: Ovarian cancer cells were seeded in 96 well microtiter plates at a concentration of 6×10^3 cells per well, in a volume of 100 μL of cell culture medium. After 24 hours, 20 μL aliquots of the compounds at various concentrations were added to the attached cells. Each concentration was plated into 3 wells to obtain mean values. To eliminate any solvent effect, 20 μL of the solvent used in the preparation of the highest concentration of the compounds (a maximum of 0.5% by volume of DMSO) was added to the control cells in each well. The plates were incubated at 37° C. in the CO2 incubator for 72 hours. At the end of day 3, the culture medium was carefully removed without disturbing the cells, and replaced by 100 μL of fresh cell medium. 10 μL of MTT reagent was added to each well and the plates were incubated again in the CO2 incubator at 37° C. for 4 hours. 100 μL of SDS solubilising reagent (from Boehringer Mannheim) was added to each well. The plate was allowed to stand overnight in the CO2 incubator and read by ELISA Reader (EL800, Bio-Tek Instruments, Inc.) at a wavelength of 570 nm. The percent cell viability was calculated according to the equation below: 100% (absorption of the control cells-absorption of the treated cells)/absorption of the control cells. A second set of experiments were carried out showing how the compounds in the formulations of the invention act in synergy with one another. The experimental results differ slightly from those reported above as the experimental work was carried out in a different laboratory and under slightly different conditions. In the second set of experiments the MTT reagent kit was purchased from Sigma-Aldridge in the UK and, due to time constraints; the cells were only incubated overnight prior to being treated with the drugs. The cell lines were also of different origin (the second set being obtained directly from Dr Marianne Poruch of the NIH, Bethesda Md., USA) and may have been subjected to different conditions during storage.

PTX10 = assay: as above; settings: Homo sapiens, PTX10 (taxol-resistant)
Procedure: as §1

[1] = tested on: human ovarian cancer cell lines A2780 (sensitive) and PTX-10 (resistant to taxol); assay: Antiproliferative activity, MTT cell viability assay, first set of experiments (72 h), comparison of the two cell lines; settings: A2780 versus taxol-resistant PTX-10
Excerpt: The present investigation uses two types of cancer cells: A2780 and PTX-10. A2780 is typical of most human ovarian cancers and is not known to be drug-resistant. PTX10 is a taxol-resistant variant of A2780. These two cell types provide a model to compare the effectiveness of the compositions of the present invention against a typical ovarian human cancer where taxol would be a useful treatment and a tumour line where taxol is not useful in treatment.
Cell lines: A2780 and PTX-10 cell lines were from National Institute of Health, Bethesda, Md.
Cell Culture: Both cell lines were cultured in RPMI 1640 supplemented with 10% foetal bovine serum, L-glutamine and antibiotics according to the method of Halicka et al. (Int. J. Oncology 1:437-48, 1997). All media, supplements, and antibiotics were obtained from Life Technologies (Grand Island, N.Y.). The cultures were periodically tested for Mycoplasma infection.
To maintain asynchronous exponential growth, these adherent cells were routinely seeded at 3×10^5 in a T-75 flask and incubated at 37° C. in 5% CO2 for 5-6 days and then repassaged at a 1:10 dilution by trypsinisation (0.25% trypsin/1 mM EDTA). Morphological changes and cell counts of the control and treated cancer cells were determined by light microscopy. Only exponentially and asynchronously growing cells were used in all experiments.
Inhibition of Cell-Growth and Viability AssASYS: The MTT reagent kit was purchased from Boehringer Mannheim (Roche Diagnosis Corp, Indianapolis, Ind.) to count viable cells. […] The protocol for the cell viability assay was provided by the manufacturer and modified in our laboratory as described below: […]
The plates were incubated at 37° C. in the CO2 incubator for 72 hours. […] The plate was allowed to stand overnight in the CO2 incubator and read by ELISA Reader (EL800, Bio-Tek Instruments, Inc.) at a wavelength of 570 nm. The percent cell viability was calculated according to the equation below: 100% (absorption of the control cells−absorption of the treated cells)/absorption of the control cells. […]

SMILES	IC50 (A2780) [nM]	IC50 (PTX10) [nM]	relative sensitivity of the cell lines (dose-response curves, antiproliferative activity) [1]
O=C(/C=C/c1ccc(O)cc1)c1ccc(O)cc1O [Formula V, isoliquiritigenin]	2400 ± 420	300 ± 130	PTX-10 cell line is more sensitive
COc1c(O)cc(O)c2c(=O)cc(-c3ccccc3)oc12 [Formula III, wogonin]	670 ± 230	590 ± 380	PTX-10 cell line is slightly more sensitive
C=C1C(=O)[C@]23[C@H](O)[C@H]1CC[C@H]2[C@@]12CO[C@]3(O)[C@@H](O)[C@@H]1C(C)(C)CC[C@@H]2O [Formula I, oridonin]	810 ± 130	4720 ± 3700	A2780 cell line is more sensitive
